Values of other authors, collected in PubChem BioAssay AID1259409 (Chemical Carcinogenesis Research Information System (CCRIS), 2018).

Test system: rodent chemically induced tumor inhibition, incidence and multiplicity
Experiment: CCRIS tumor inhibitor studies

Compound: C[Se]C#N
- tumour outcome (control, treated, inhibition, significance) (Carcinogen: 7,12-DIMETHYLBENZ[A]ANTHRACENE, 57-97-6, Dose [Inhibitor]: 0, 1 PPM (AS SELENIUM) IN DIET BEGINNING 2 WK PRIOR TO CARCINOGEN DOSE AND CONTINUING FOR DURATION OF STUDY (STUDY DURAT, Route [Inhibitor]: ORAL, Species: RAT, Strain/Sex: SPRAGUE-DAWLEY/FEMALE, Target Tissue: Type of Lesion: MAMMARY GLAND: ADENOCARCINOMA, Dose [Carcinogen]: 10 MG ONCE AT 55 D OF AGE, Promoter: NONE USED): 88%, 64%, 27%, not significant
- tumour outcome (control, treated, inhibition, significance) (Carcinogen: 7,12-DIMETHYLBENZ[A]ANTHRACENE, 57-97-6, Dose [Inhibitor]: 0, 2 PPM (AS SELENIUM) IN DIET BEGINNING 2 WK PRIOR TO CARCINOGEN DOSE AND CONTINUING FOR DURATION OF STUDY (STUDY DURAT, Route [Inhibitor]: ORAL, Species: RAT, Strain/Sex: SPRAGUE-DAWLEY/FEMALE, Target Tissue: Type of Lesion: MAMMARY GLAND: ADENOCARCINOMA, Dose [Carcinogen]: 10 MG ONCE AT 55 D OF AGE, Promoter: NONE USED): 88%, 52%, 41%, p<0.05
- tumour outcome (control, treated, inhibition, significance) (Carcinogen: 7,12-DIMETHYLBENZ[A]ANTHRACENE, 57-97-6, Dose [Inhibitor]: 0, 3 PPM (AS SELENIUM) IN DIET BEGINNING 2 WK PRIOR TO CARCINOGEN DOSE AND CONTINUING FOR DURATION OF STUDY (STUDY DURAT, Route [Inhibitor]: ORAL, Species: RAT, Strain/Sex: SPRAGUE-DAWLEY/FEMALE, Target Tissue: Type of Lesion: MAMMARY GLAND: ADENOCARCINOMA, Dose [Carcinogen]: 10 MG ONCE AT 55 D OF AGE, Promoter: NONE USED): 88%, 40%, 55%, p<0.05
- tumour outcome (control, treated, inhibition, significance) (Carcinogen: 7,12-DIMETHYLBENZ[A]ANTHRACENE, 57-97-6, Dose [Inhibitor]: 0.1, 2 PPM (SELENIUM) IN DIET FOR 3 WK BEGINNING 2 WK PRIOR TO CARCINOGEN DOSE (STUDY DURATION: 25 WK), Route [Inhibitor]: ORAL, Species: RAT, Strain/Sex: SPRAGUE-DAWLEY/FEMALE, Target Tissue: Type of Lesion: MAMMARY GLAND: TUMOR, Dose [Carcinogen]: 10 MG ONCE, Promoter: NONE USED): 25/30 (83%), 19/30 (63%), 24%, not significant

Compound: CCOC(=O)/C=C(/C=C/C=C(C)/C=C/c1c(C)cc(OC)c(C)c1C)C(F)(F)F
- tumour outcome (control, treated, inhibition, significance) (Carcinogen: 7,12-DIMETHYLBENZ[A]ANTHRACENE, 57-97-6, Dose [Inhibitor]: 140 NMOL IN 0.2 ML ACETONE 2/WK (D 1 AND D 4 OF EACH WK) 1 HR BEFORE EACH PROMOTER APPLICATION STARTING 14 D AFTER CARCI, Route [Inhibitor]: DERMAL, Species: MOUSE, Strain/Sex: CD-1/FEMALE, Target Tissue: Type of Lesion: SKIN: PAPILLOMA, Dose [Carcinogen]: 0.2 UMOL IN 0.2 ML ACETONE ONCE, Promoter: 12-O-TETRADECANOYLPHORBOL-13-ACETATE, 16561-29-8): 90%, 100%, -11%, not significant

Compound: C[C@]12CCC(=O)C=C1CC[C@@H]1[C@@H]2[C@@H](O)C[C@@]2(C)[C@H]1CC[C@]2(O)C(=O)CO
- tumour outcome (control, treated, inhibition, significance) (Carcinogen: METHYLAZOXYMETHANOL ACETATE, 592-62-1, Dose [Inhibitor]: 7.5 MG/KG BW DAILY FOR 3 WK STARTING 21 WK POST CARCINOGEN TREATMENT (STUDY DURATION: 30 WK), Route [Inhibitor]: INTRARECTAL, Species: RAT, Strain/Sex: DONRYU/MALE, Target Tissue: Type of Lesion: LARGE INTESTINE: ADENOCARCINOMA, Dose [Carcinogen]: 20 MG/KG BW 1/WK FOR 6 WK, Promoter: NONE USED): 19/23 (83%), 16/29 (55%), 34%, p<0.05
- tumour outcome (control, treated, inhibition, significance) (Carcinogen: METHYLAZOXYMETHANOL ACETATE, 592-62-1, Dose [Inhibitor]: 7.5 MG/KG BW DAILY FOR 3 WK STARTING 21 WK POST CARCINOGEN TREATMENT (STUDY DURATION: 30 WK), Route [Inhibitor]: INTRARECTAL, Species: RAT, Strain/Sex: DONRYU/MALE, Target Tissue: Type of Lesion: SMALL INTESTINE: ADENOCARCINOMA, Dose [Carcinogen]: 20 MG/KG BW 1/WK FOR 6 WK, Promoter: NONE USED): 10/23 (43%), 4/29 (14%), 67%, p<0.05
- tumour outcome (control, treated, inhibition, significance) (Dose [Inhibitor]: 0, 1.5 MG 2/WK FOR 10 WK (STUDY DURATION: 65 WK), Route [Inhibitor]: INTRAMUSCULAR, Species: RAT, Strain/Sex: F344/MALE, Target Tissue: Type of Lesion: LIVER: HEPATOCELLULAR CARCINOMA, Dose [Carcinogen]: 100 UG 2/WK FOR 10 WK, Promoter: NONE USED): 12/13 (92%), 15/24 (63%), 32%, p<0.05

Compound: CS(=O)(=O)c1ccc(C2=C(c3ccccc3)C(=O)OC2)cc1
- tumour outcome (control, treated, inhibition, significance) (Carcinogen: N-METHYL-N-NITROSOUREA, 684-93-5, Dose [Inhibitor]: 0.001% IN DIET, BEGINNING 7 D BEFORE FIRST CARCINOGEN DOSE FOR 19 WK (STUDY DURATION: 19 WK), Route [Inhibitor]: ORAL, Species: RAT, Strain/Sex: SPRAGUE-DAWLEY/FEMALE, Target Tissue: Type of Lesion: MAMMARY GLAND: TUMOR, Dose [Carcinogen]: 50 MG/KG 1 WK FOR 2 WK): 16/23 (69.6%), 10/24 (41.7%), 40%, not significant
- tumour outcome (control, treated, inhibition, significance) (Carcinogen: N-METHYL-N-NITROSOUREA, 684-93-5, Dose [Inhibitor]: 0.005% IN DIET, BEGINNING 7 D BEFORE FIRST CARCINOGEN DOSE FOR 19 WK (STUDY DURATION: 19 WK), Route [Inhibitor]: ORAL, Species: RAT, Strain/Sex: SPRAGUE-DAWLEY/FEMALE, Target Tissue: Type of Lesion: MAMMARY GLAND: TUMOR, Dose [Carcinogen]: 50 MG/KG 1 WK FOR 2 WK): 16/23 (69.6%), 10/25 (40%), 42.5%, p< 0.05
